Data taken from the NIST ThermoML archive (doi:10.1016/j.jct.2009.06.019).

How the values were obtained:
[1] = 101.33 kPa, Liquid, Vibrating tube method
[2] = xn = mol fraction of the nth substance listed; conditions: 101.3 kPa, Liquid, Vibrating tube method

CN1CCN(C)C1=O [1,3-dimethyl-2-imidazolidinone]
[1]
Conditions | mass density [kg/m3]
278.15 K | 1069.3
288.15 K | 1060.43
298.15 K | 1051.6
308.15 K | 1042.79
313.15 K | 1038.38
318.15 K | 1034

CN1CCN(C)C1=O [1,3-dimethyl-2-imidazolidinone] + O
mass density [kg/m3], [2]
Conditions | 278.15 K | 288.15 K | 298.15 K | 308.15 K | 313.15 K | 318.15 K
x1 = 0.000904 | 1000.51 | 999.59 | 997.49 | 994.45 | 992.61 | 990.61
x1 = 0.001349 | 1000.75 | 999.82 | 997.72 | 994.65 | 992.81 | 990.8
x1 = 0.001765 | 1000.99 | 1000.04 | 997.92 | 994.84 | 992.99 | 990.96
x1 = 0.002486 | 1001.42 | 1000.44 | 998.29 | 995.19 | 993.33 | 991.29
x1 = 0.003566 | 1002.08 | 1001.05 | 998.84 | 995.7 | 993.82 | 991.77
x1 = 0.004326 | 1002.53 | 1001.45 | 999.22 | 996.05 | 994.15 | 992.09
x1 = 0.005478 | 1003.25 | 1002.09 | 999.81 | 996.59 | 994.68 | 992.59
x1 = 0.006268 | 1003.72 | 1002.53 | 1000.22 | 996.97 | 995.04 | 992.94
x1 = 0.006996 | 1004.16 | 1002.93 | 1000.57 | 997.3 | 995.36 | 993.25
x1 = 0.008039 | 1004.82 | 1003.54 | 1001.14 | 997.82 | 995.85 | 993.72
x1 = 0.008854 | 1005.33 | 1004.01 | 1001.57 | 998.22 | 996.23 | 994.08
